Data from patent US12006542B2, “Force-modulated hybridization for visualizing nucleic acid length and function” (University of Houston System, priority 2017, dated 2024).

Columns and labels:
[1] = test system: DNA duplex, enzyme-binding segment for EcoRI; assay: Force-modulated drug-DNA binding determination with DNA-cleaving enzyme EcoRI (visual particle immobilization); conditions: EcoRI present; after ~1 pN force
Text: (§1) To determine the exact binding site of drugs on nucleic acids, a derived scheme contains a magnetically labeled DNA and its complementary strand, in the presence of the drug to be analyzed and a DNA-cleaving enzyme. The binding site of the drug can be precisely determined by force modulation following surface immobilization.
(§2) FIG. 1D can be utilized to illustrate a system 100 for measuring drug-DNA binding. A magnetically labeled DNA strand 102 is hybridized with its complementary strand 104, in the presence of a drug molecule 106 and a DNA-cleaving enzyme 107. If the drug binds with the DNA specifically at the location of the enzyme, the enzyme will not be able to cleave the duplex. Consequently, the magnetic particles will be able to be immobilized on the surface via the biotin 105 on complementary strand 104, showing yellowish color in image 108(a) and being assigned as “1”. […] Thus, the magnetic particles will not be able to bind with the surface because of the absence of a functional group (such as biotin 105 shown in FIG. 1D) to interact with the matching functional group on the surface, showing as clear and being assigned as “0” in image 108(b).
(§3) The derived scheme presented in FIG. 1D was used to precisely determine the binding sites of drug molecules. […]

[2] = test system: segment of the DNA duplex specified by EcoRI; assay: Dissociation force of drug-DNA binding, segment specified by EcoRI; conditions: FIG. 5C blue section
Description: (§6) The dissociation force can be further used to quantitatively distinguish the binding strength of different drug molecules at each and every specific nucleotide sequence. […] This segment is specifically chosen because of the addition of enzyme DpnII.

[3] = test system: segment of the DNA duplex specified by DpnII; assay: Dissociation force of drug-DNA binding, segment chosen by DpnII; conditions: for order of binding strength (dissociation force): DNA segment chosen by addition of DpnII, FIG. 5C red section
Description: as §6

[4] = test system: DNA duplex, CTAG (DpnII); assay: Multiplexed sample wells, ultrasound force through a piezo plate, DpnII; format: binding; conditions: 100 μM drug, lane 2
Description: (§4) A shown in FIG. 7A, a new system was designed consisting of a puncher, an incubator, and a displayer. After incubating the sample, the puncher will be used to break the bottom of the incubator so the sample will be transferred to the corresponding wells on the displayer. The bottom of the displayer was functionalized, for example with streptavidin, so that magnetic particles will be able to be immobilized through a labeled DNA duplex, for example with biotin. A mechanical force is then applied on the displayer followed by final inspection and measurement.
(§5) The samples within each lane were under identical conditions. 1: DNA duplex with 100 μM daunorubicin and DpnII; 2: DNA duplex with 100 μM netropsin and DpnII; 3: DNA duplex; 4: DNA duplex incubated with 100 μM daunomycin and EcoRI; 5: DNA duplex with 100 μM netropsin and ECoRI. After applying ultrasound through a piezo plate, only the particles in lanes 2 and […] were removed, indicating weak binding between netropsin and CTAG (lane 2), and between daunomycin and the EcoRI binding site (lane 4).

[5] = test system: DNA duplex, enzyme-binding segment for DpnII; assay: Force-modulated drug-DNA binding determination with DNA-cleaving enzyme DpnII (visual particle immobilization); conditions: DpnII present; after ~1 pN force
Text: as §1, §2, §3

[6] = test system: DNA; assay: Laser transmission quantification of immobilized particles at different drug concentrations; format: binding; conditions: fitting of transmission profile vs drug concentration
Text: The detection was achieved by using a photodetector (DET100A, Thorlabs) coupled with a voltmeter. […] Fitting of the profile yielded a binding constant of 9±2×10^4 M^−1, consistent with the results using a sensitive atomic magnetometer.

[7] = test system: DNA duplex, EcoRI binding site; assay: Multiplexed sample wells, ultrasound force through a piezo plate, EcoRI; conditions: 100 μM drug, lane 4
Description: as §4, §5

[8] = relative to doxorubicin; cited from earlier work

Row | sequence selectivity of DNA binding ([3]; comparison of DpnII and EcoRI segments) | Structure (SMILES) | blocking of EcoRI on DNA duplex (particle immobilization) [1] | rank of binding strength (dissociation force) [2] | order of binding strength (dissociation force) [3] | binding with CTAG after ultrasound [4] | blocking of DpnII binding site on DNA duplex (particle immobilization) [5] | binding constant [6] | binding with the EcoRI binding site after ultrasound [7] | toxicity in chemotherapy [8]
1 | – | Cn1cc(NC(=O)c2cc(NC(=O)CN=C(N)N)cn2C)cc1C(=O)NCCC(=N)N [netropsin] | able to block EcoRI | second strongest | daunomycin, doxorubicin > epirubicin >> daunomycin >> netropsin | weak binding | does not interfere with the binding of DpnII | – | – | –
2 | – | COc1cccc2c1C(=O)c1c(O)c3c(c(O)c1C2=O)C[C@@](O)(C(C)=O)C[C@@H]3O[C@H]1C[C@H](N)[C@H](O)[C@H](C)O1 [daunomycin] | could not | – | daunomycin, doxorubicin > epirubicin >> daunomycin >> netropsin | – | blocked the binding site of DpnII | 9±2×10^4 M^−1 | weak binding | –
3 | – | COc1cccc2c1C(=O)c1c(O)c3c(c(O)c1C2=O)C[C@@](O)(C(=O)CO)C[C@@H]3O[C@H]1C[C@H](N)[C@H](O)[C@H](C)O1 [doxorubicin] | – | – | daunomycin, doxorubicin > epirubicin >> daunomycin >> netropsin | – | – | – | – | –
4 | more sequence-selective than doxorubicin | COc1cccc2c1C(=O)c1c(O)c3c(c(O)c1C2=O)C[C@@](O)(C(=O)CO)C[C@@H]3O[C@H]1C[C@H](N)[C@@H](O)[C@H](C)O1 [epirubicin] | – | – | daunomycin, doxorubicin > epirubicin >> daunomycin >> netropsin | – | – | – | – | less toxic
